Measurements: US9649392B2, “Central nervous system labelling composition for intranasal administration and labelling method and screening method using central nervous system labelling composition for intranasal administration” (CANON KABUSHIKI KAISHA, priority 2009, dated 2017)

Test system: central nervous system of the zebrafish
Assay: dyeing of the central nervous system of juvenile zebrafish after exposure to dye solution, fluorescence/confocal microscope observation over time
Assay type: in vivo
Conditions: 7 dpf juvenile zebrafish; for dyeing of nerve cells of the central nervous system: confocal microscope; for dyed state of the central nervous system (transfer of dyeability with time from nasal cavity via olfactory bulb): left 1 hour, washed, observed at time intervals
Description: Distilled water was added to a 1 mg/mL DMSO solution of compound 1 (as expressed by the formula (5) above) to obtain a dye solution 1 containing the compound 1 to a concentration of 200 ng/mL. 1 mL of the dye solution 1 and a 7-day-old (7 dpf) juvenile fish of zebrafish were put into an arbitrarily selected well of a 24-hole multi plate (available from IWAKI) and left there for an hour. Thereafter, the dye solution 1 in the well was removed and an operation of replacing it with 1 mL of distilled water was repeated three times in ten minutes. The elapsed time after the last solution replacing operation was measured and the juvenile fish was taken out from the well when a predetermined time period had elapsed. The juvenile fish was buried in 5% low melting-point agarose gel on a glass slide to restrict any movement and the dyed state of the central nervous system of the zebrafish was observed from a lateral side and the vertex by using fluorescent microscope (MZ16FA: available from Leica). The central nervous system was observed by means of a confocal microscope (Pascal Exciter: available from Zeiss). After the observation, the zebrafish was returned into the well and repeatedly observed thereafter at regular time intervals. […]

SMILES | dyeing of nerve cells of the central nervous system (dye solution 200 ng/mL) | dyed state of the central nervous system (transfer of dyeability with time from nasal cavity via olfactory bulb) (dye solution 200 ng/mL) | dyeing of nerve cells of the central nervous system (dye solution 500 ng/mL) | dyed state of the central nervous system (transfer of dyeability with time from nasal cavity via olfactory bulb) (dye solution 500 ng/mL)
CCN1/C(=C\C=C\C2=[N+](CC)c3ccccc3C23CCCCC3)C2(CCCCC2)c2ccccc21 [compound 1] | nerve cells of the central nervous system were also dyed | firstly the nasal cavity, then the olfactory bulb and finally the central nervous system were sequentially dyed | – | –
CC/N=c1\cc2oc3cc(NCC)c(C)cc3c(-c3ccccc3C(=O)OCC)c-2cc1C [compound 2] | – | – | nerve cells of the central nervous system were also dyed | firstly the nasal cavity, then the olfactory bulb and finally the central nervous system were sequentially dyed
CCN1c2ccc(/C=C/C3=[N+](CC)c4ccc(OC)cc4C34CCCCC4)cc2C2CCCC21 (stereo not drawn) [compound 3] | – | – | nerve cells of the central nervous system were also dyed | firstly the nasal cavity, then the olfactory bulb and finally the central nervous system were sequentially dyed
